Columns and labels:
AVEFA [1] = experiment: Pre-emergence herbicidal action against AVEFA; format: in vivo, Avena fatua; conditions: 80 g/ha, pre-emergence
Outline: (§1)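 Greenhouse pots of sandy loam held seeds covered with soil, onto which the compound was applied before emergence. An aqueous suspension or emulsion of WP or EC was used at 600 to 800 l/ha with 0.2% wetting agent. Percent damage was judged visually at 3 weeks.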

MATIN [2] = experiment: Post-emergence herbicidal action against MATIN; format: in vivo, Matricaria inodora
Outline: (§2)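 Foliar application at one-leaf stage of formulated test compounds, aqueous spray at 600–800 l/ha with 0.2% wetting agent. Greenhouse, optimal conditions, ~3 weeks; damage scored visually in % relative to untreated plants.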

ABUTH [3] = experiment: Post-emergence herbicidal action against ABUTH; format: in vivo, Abutilon theophrasti; conditions: visual assessment about 3 weeks after treatment vs untreated controls
Outline: as §2

ABUTH [4] = experiment: Pre-emergence herbicidal action against ABUTH; format: in vivo, Abutilon theophrasti
Outline: as §1

VIOTR [5] = experiment: Pre-emergence herbicidal action against VIOTR; format: in vivo, Viola tricolor
Outline: as §1

ALOMY [6] = experiment: Post-emergence herbicidal action against ALOMY; format: in vivo, Alopecurus myosuroides; conditions: dosage 20 g/ha, visual assessment about 3 weeks after treatment vs untreated controls
Outline: as §2

AMARE [7] = experiment: Pre-emergence herbicidal action against AMARE; format: in vivo, Amaranthus retroflexus
Outline: as §1

SETVI [8] = experiment: Pre-emergence herbicidal action against SETVI; format: in vivo, Setaria viridis
Outline: as §1

MATIN [9] = experiment: Pre-emergence herbicidal action against MATIN; format: in vivo, Matricaria inodora
Outline: as §1

POLCO = experiment: Pre-emergence herbicidal action against POLCO; format: in vivo, Polygonum convolvulus; conditions: dosage 80 g/ha
Outline: as §1

PHBPU [10] = experiment: Pre-emergence herbicidal action against PHBPU; format: in vivo, Pharbitis purpurea; conditions: dosage 80 g/ha
Outline: as §1

PHBPU [11] = experiment: Post-emergence herbicidal action against PHBPU; format: in vivo, Pharbitis purpurea
Outline: as §2

ALOMY [12] = experiment: Pre-emergence herbicidal action against ALOMY; format: in vivo, Alopecurus myosuroides; conditions: pre-emergence
Outline: as §1

ECHCG [13] = experiment: Pre-emergence herbicidal action against ECHCG; format: in vivo, Echinochloa crus-galli; conditions: 80 g/ha
Outline: as §1

SETVI [14] = experiment: Post-emergence herbicidal action against SETVI; format: in vivo, Setaria viridis
Outline: as §2

VIOTR [15] = experiment: Post-emergence herbicidal action against VIOTR; format: in vivo, Viola tricolor
Outline: as §2

AMARE [16] = experiment: Post-emergence herbicidal action against AMARE; format: in vivo, Amaranthus retroflexus; conditions: 20 g/ha, visual assessment about 3 weeks after treatment, 100% = plants have died, 0% = like control plants
Outline: as §2

AVEFA [17] = experiment: Post-emergence herbicidal action against AVEFA; format: in vivo, Avena fatua; conditions: 20 g/ha, visual assessment about 3 weeks after treatment, 100% = plants have died, 0% = like control plants
Outline: as §2

DIGSA [18] = experiment: Post-emergence herbicidal action against DIGSA; format: in vivo, Digitaria sanguinalis
Outline: as §2

ECHCG [19] = experiment: Post-emergence herbicidal action against ECHCG; format: in vivo, Echinochloa crus-galli
Outline: as §2

DIGSA [20] = experiment: Pre-emergence herbicidal action against DIGSA; format: in vivo, Digitaria sanguinalis; conditions: Digitaria sanguinalis, 504 h
Outline: as §1

VERPE = experiment: Pre-emergence herbicidal action against VERPE; format: in vivo, Veronica persica; conditions: dosage 80 g/ha
Outline: as §1

[21] = Tripleurospermum inodorum, 504 h, dosage 20 g/ha
[22] = Setaria viridis, 504 h, dosage 20 g/ha
[23] = 80 g/ha, scored visually after 3 weeks vs untreated controls (100% = plants have died, 0% = like control plants)

Work on CCn1nnnc1NC(=O)c1ccc(C(F)(F)F)c(C(=O)NC2CC2)c1OC [Example 2-58] yielded a pest or weed control at 80 g/ha (AVEFA [1]; Avena fatua, 504 h) of 90%, a pest or weed control at 5 g/ha (MATIN [2]; Tripleurospermum inodorum, 504 h, dosage 5 g/ha) of 80% and a pest or weed control at 20 g/ha (MATIN [2]; [21]) of 90%. For the same compound, the pest or weed control at 5 g/ha (ABUTH [3]; Abutilon theophrasti, 504 h, dosage 5 g/ha) was 100%, the pest or weed control at 20 g/ha (ABUTH [3]; Abutilon theophrasti, 504 h, dosage 20 g/ha) was 100% and the pest or weed control at 80 g/ha (ABUTH [4]; Abutilon theophrasti, 504 h, 80 g/ha, scored visually after 3 weeks vs untreated controls (100% = plants have died, 0% = like control plants)) was 100%. For the same compound, the pest or weed control at 20 g/ha (ABUTH [4]; Abutilon theophrasti, 504 h, dosage 20 g/ha, scored visually after 3 weeks vs untreated controls, 100% = plants have died, 0% = like control plants, read-out: Pre-emergence action against ABUTH (herbicidal activity in percent)) was 100%, the pest or weed control at 20 g/ha (VIOTR [5]; Viola tricolor, 504 h, dosage 20 g/ha) was 100% and the pest or weed control at 80 g/ha (VIOTR [5]; Viola tricolor, 504 h, dosage 80 g/ha) was 100%. The pest or weed control at 20 g/ha (ALOMY [6]; Alopecurus myosuroides, 504 h) was 80%, the pest or weed control at 20 g/ha (AMARE [7]; Amaranthus retroflexus, 504 h, 20 g/ha, scored visually after 3 weeks vs untreated controls, 100% = plants have died, 0% = like control plants) was 100% and the pest or weed control at 80 g/ha (AMARE [7]; Amaranthus retroflexus, 504 h, 80 g/ha, scored visually after 3 weeks vs untreated controls, 100% = plants have died, 0% = like control plants) was 100%. For the same compound, the pest or weed control at 20 g/ha (SETVI [8]; [22]) was 100%, the pest or weed control at 80 g/ha (SETVI [8]; Setaria viridis, 504 h, dosage 80 g/ha) was 100% and the pest or weed control at 20 g/ha (MATIN [9]; [21]) was 100%. For the same compound, the pest or weed control at 80 g/ha (MATIN [9]; Tripleurospermum inodorum, 504 h, dosage 80 g/ha) was 100%, the pest or weed control at 80 g/ha (POLCO; Fallopia convolvulus, 504 h) was 80% and the pest or weed control at 80 g/ha (PHBPU [10]; Ipomoea purpurea, 504 h) was 90%. The pest or weed control at 20 g/ha (PHBPU [11]; Ipomoea purpurea, 504 h, dosage 20 g/ha) was 90%, the pest or weed control at 80 g/ha (ALOMY [12]; Alopecurus myosuroides, 504 h, 80 g/ha, scored visually after 3 weeks vs untreated controls (100% = plants have died, 0% = like control plants)) was 100% and the pest or weed control at 20 g/ha (ALOMY [12]; Alopecurus myosuroides, 504 h, 20 g/ha, scored visually after 3 weeks, 100% = plants have died, 0% = like control plants) was 90%. It also gave a pest or weed control at 80 g/ha (ECHCG [13]; Echinochloa crus-galli, 504 h) of 100%, a pest or weed control at 5 g/ha (SETVI [14]; Setaria viridis, 504 h, dosage 5 g/ha) of 90% and a pest or weed control at 20 g/ha (SETVI [14]; [22]) of 100%. The pest or weed control at 5 g/ha (VIOTR [15]; Viola tricolor, 504 h, 5 g/ha) was 100%, the pest or weed control at 20 g/ha (VIOTR [15]; Viola tricolor, 504 h, 20 g/ha) was 100% and the pest or weed control at 20 g/ha (AMARE [16]; Amaranthus retroflexus, 504 h) was 100%. It also gave a pest or weed control at 20 g/ha (AVEFA [17]; Avena fatua, 504 h) of 80%, a pest or weed control at 5 g/ha (DIGSA [18]; Digitaria sanguinalis, 504 h, 5 g/ha) of 100% and a pest or weed control at 20 g/ha (DIGSA [18]; Digitaria sanguinalis, 504 h, 20 g/ha) of 100%. The pest or weed control at 5 g/ha (ECHCG [19]; Echinochloa crus-galli, 504 h, dosage 5 g/ha) was 90%, the pest or weed control at 20 g/ha (ECHCG [19]; Echinochloa crus-galli, 504 h, dosage 20 g/ha) was 100% and the pest or weed control at 20 g/ha (DIGSA [20]; dosage 20 g/ha) was 100%. The pest or weed control at 80 g/ha (DIGSA [20]; dosage 80 g/ha) was 100%.

In the case of CCNC(=O)c1c(C(F)(F)F)ccc(C(=O)Nc2nnnn2CC)c1CC [Example 2-272], the “Pre-emergence action against AVEFA in %” value (AVEFA [1]) is reported as 80%, the “Post-emergence action against MATIN in %” value (MATIN [2]; dosage 5 g/ha) is reported as 80% and the “Post-emergence action against MATIN in %” value (MATIN [2]; dosage 20 g/ha) is reported as 80%. For the same compound, the “Post-emergence action against ABUTH in %” value (ABUTH [3]; dosage 5 g/ha) was 90%, the “Post-emergence action against ABUTH in %” value (ABUTH [3]; dosage 20 g/ha) was 90% and the “Pre-emergence action against ABUTH (herbicidal activity)” value (ABUTH [4]; [23]) was 100%. For the same compound, the “Pre-emergence action against ABUTH (herbicidal activity in percent)” value (ABUTH [4]; dosage 20 g/ha, scored visually after 3 weeks vs untreated controls, 100% = plants have died, 0% = like control plants) was 100%, the “Pre-emergence action against VIOTR in %” value (VIOTR [5]; dosage 20 g/ha) was 90% and the “Pre-emergence action against VIOTR in %” value (VIOTR [5]; dosage 80 g/ha) was 100%. The “Post-emergence action against ALOMY in %” value (ALOMY [6]) was 90%, the “Pre-emergence action against AMARE in %” value (AMARE [7]; 20 g/ha, scored visually after 3 weeks vs untreated controls, 100% = plants have died, 0% = like control plants) was 100% and the “Pre-emergence action against AMARE in %” value (AMARE [7]; [23]) was 100%. The “Pre-emergence action against SETVI in %” value (SETVI [8]; dosage 80 g/ha) was 100%, the “Pre-emergence action against MATIN in %” value (MATIN [9]; dosage 20 g/ha) was 100% and the “Pre-emergence action against MATIN in %” value (MATIN [9]; dosage 80 g/ha) was 100%. The “Pre-emergence action against POLCO in %” value (POLCO) was 80%, the “Pre-emergence action against PHBPU in %” value (PHBPU [10]) was 80% and the “Post-emergence action against PHBPU in %” value (PHBPU [11]; dosage 5 g/ha) was 90%. The “Post-emergence action against PHBPU in %” value (PHBPU [11]; dosage 20 g/ha) was 100%, the “Pre-emergence action against ALOMY (herbicidal activity)” value (ALOMY [12]; [23]) was 90% and the “Pre-emergence action against ECHCG in %” value (ECHCG [13]) was 100%. For the same compound, the “Post-emergence action against SETVI in %” value (SETVI [14]; dosage 5 g/ha) was 90%, the “Post-emergence action against SETVI in %” value (SETVI [14]; dosage 20 g/ha) was 100% and the “Post-emergence action against VIOTR in %” value (VIOTR [15]; 20 g/ha) was 80%. For the same compound, the “Post-emergence action at 20 g/ha against AMARE in %” value (AMARE [16]) was 100%, the “Post-emergence action at 20 g/ha against AVEFA in %” value (AVEFA [17]) was 80% and the “Post-emergence action against DIGSA in %” value (DIGSA [18]; 5 g/ha) was 90%. The “Post-emergence action against DIGSA” value (DIGSA [18]; 20 g/ha) was 90%, the “Post-emergence action against ECHCG in %” value (ECHCG [19]; dosage 5 g/ha) was 80% and the “Post-emergence action against ECHCG in %” value (ECHCG [19]; dosage 20 g/ha) was 90%. For the same compound, the “Pre-emergence action against VERPE in %” value (VERPE) was 90%.
